According to article PMC6413231, “o-Vanillin Derived Schiff Bases and Their Organotin(IV) Compounds: Synthesis, Structural Characterisation, In-Silico Studies and Cytotoxicity” (International Journal of Molecular Sciences, 2019):

Assays:
H460 (lung) cancer cells = experiment: MTT growth inhibition assay, H460; format: cell-based; details: 72 h, ± standard error, read-out: Growth Inhibition Concentration, GI50
Experimental: (§1) The Schiff bases and their organotin(IV) compounds were screened for in vitro cytotoxicity against a panel of 12 cancer cell lines: EJ-28 (muscle invasive bladder), RT-112 (minimum-invasive bladder), HT29 (colon), U87 and SJ-G2 (glioblastoma), MCF-7 (breast), A2780 (ovarian), H460 (lung), A431 (skin), DU145 (prostate), BE2-C (neuroblastoma), MIA (pancreatic) and one normal breast cell line (MCF-10A) using the MTT metabolic assay (Figure 6). After 72 h of incubation, a dose-dependent […] effect towards the cancer cell lines was measured at very low micromolar (µM) concentrations of the compounds. The growth inhibition concentration of the Schiff bases and their organotin(IV) compounds required to inhibit 50% cell proliferation relative to the cells that were treated with DMSO (control) are given in Table 2. The stability of these compounds was assessed in DMSO as well as in a mixture of DMSO-H2O. The absorbance obtained from UV-vis spectroscopy analysis was monitored for 72 h, and an unchanged pattern in the spectra was indicative that the compounds were stable in both the solvent systems tested.
(§2) For HT29 (colon), U87 and SJ-G2 (glioblastoma), MCF-7 (breast), A2780 (ovarian), H460 (lung), A431 (skin), Du145 (prostate), BE2-C (neuroblastoma), MIA (pancreas) cell lines and one normal breast cell line, MCF-10A (normal breast), the MTT assays were performed using the following method:
(§3) Stock solutions were prepared as follows and stored at −20 °C: Trial compounds were stored as 10 mM solutions in DMSO. All cell lines were cultured in a humidified atmosphere 5% CO2 at 37 °C. The cancer cell lines were maintained in Dulbecco’s modified Eagle’s medium (DMEM) (Trace Biosciences) supplemented with 10% foetal bovine serum, 10 mM sodium bicarbonate, penicillin (100 IU/mL), streptomycin (100 μg/mL) and glutamine (4 mM). The normal cell line, MCF-10A was cultured in DMEM:F12 (1:1) cell culture media, 5% heat inactivated horse serum, supplemented with penicillin (50 IU/mL), streptomycin (50 μg/mL), 20mM Hepes, L-glutamine (2 mM), epidermal growth factor (20 ng/mL), hydrocortisone (500 ng/mL), cholera toxin (100 ng/mL) and insulin (10 μg/mL).
(§4) Cells in logarithmic growth were transferred to 96-well plates. Cytotoxicity was determined by plating cells in duplicate in 100 μL medium at a density of 2500–4000 cells/well. On day 0 (24 h after plating), when the cells were in logarithmic growth, 100 μL medium, with or without the test agent, was added to each well. After 72 h drug exposure, growth inhibitory effects were evaluated using the MTT (3-[4,5-dimethylthiazol-2-yl]-2,5-diphenyltetrazolium bromide) assay and absorbance read at 540 nm. Percentage growth inhibition was determined at a fixed drug concentration of 25 μM. A value of 100% was indicative of complete cell growth inhibition. Those analogues showing appreciable percentage growth inhibition underwent further dose-response analysis allowing for the calculation of a GI50 value. This value is the drug concentration at which cell growth is 50% inhibited based on the difference between the optical density values on day 0 and those at the end of drug exposure.

[1] = system: U87 (glioblastoma) cancer cells; experiment: MTT growth inhibition assay, U87; format: cell-based; details: 72 h, ± standard error, read-out: Growth Inhibition Concentration, GI50
Experimental: as §1, §2, §3, §4

A431 (skin) cancer cells = experiment: MTT growth inhibition assay, A431; format: cell-based; details: 72 h, ± standard error, read-out: Growth Inhibition Concentration, GI50
Experimental: as §1, §2, §3, §4

[2] = system: EJ-28 (muscle invasive bladder) cancer cells; experiment: MTT cytotoxicity assay, EJ-28; format: cell-based, human; details: EJ-28 cells, 72 h, ± standard error, read-out: Growth Inhibition Concentration, GI50
Experimental: as §1
(§5) The inhibitory effect of the synthesised compounds on the growth of bladder (EJ-28 and RT-112) cancer cells was evaluated by MTT assay. […] RT-112 and EJ-28, human bladder cancer cell lines used in this study (ATCC, Manassas, VA, USA) were cultured in RPMI-1640 (High glucose) medium supplemented with 10% fetal bovine serum containing 1% penicillin. The cells were cultured at 37 °C in a humidified atmosphere of 5% CO2 in air. Cells were seeded in 96-well plates at 6000 cells per well for 24 h, then they were treated with different concentrations of compounds for 72 h. The medium was subsequently removed and the wells were washed with 200 µL of phosphate buffer saline. Aliquots of 20 µL of 3-(4,5-dimethylthiazol-2-yl)-2,5-diphenyltetrazolium bromide (MTT) was added to each well and incubated for 4 h at 37 °C. Aliquots of 200 µL of media was then removed from each well and 200 µL of DMSO was added. Optical density (OD) was measured using an ELISA plate reader at 570 nm. Control wells (100% viability), containing media and DMSO, were included in all the experiments. All data points represented an average of triplicate assays. Cytotoxicity was expressed as CD50, i.e., the concentration that reduced the absorbance of treated cells by 50% with reference to the control (untreated cells).

[3] = system: MCF-10A (normal breast) cell line; experiment: MTT growth inhibition assay, MCF10A; format: cell-based; details: MCF10A normal breast cells, 72 h, ± standard error, read-out: Growth Inhibition Concentration, GI50
Experimental: as §1, §2, §3, §4

[4] = system: MIA (pancreatic) cancer cells; experiment: MTT growth inhibition assay, MIA; format: cell-based; details: 72 h, ± standard error, read-out: Growth Inhibition Concentration, GI50
Experimental: as §1, §2, §3, §4

[5] = system: SJ-G2 (glioblastoma) cancer cells; experiment: MTT growth inhibition assay, SJ-G2; format: cell-based; details: MTT, 72 h, ± standard error, read-out: Growth Inhibition Concentration, GI50
Experimental: as §1, §2, §3, §4

[6] = system: HT29 (colon) cancer cells; experiment: MTT growth inhibition assay, HT29; format: cell-based; details: 72 h, ± standard error, read-out: Growth Inhibition Concentration, GI50
Experimental: as §1, §2, §3, §4

[7] = system: A2780 (ovarian) cancer cells; experiment: MTT growth inhibition assay, A2780; format: cell-based; details: 72 h, ± standard error, read-out: Growth Inhibition Concentration, GI50
Experimental: as §1, §2, §3, §4

[8] = system: RT-112 (minimum-invasive bladder) cancer cells; experiment: MTT cytotoxicity assay, RT-112; format: cell-based, human; details: RT-112 cells, 72 h, ± standard error, read-out: Growth Inhibition Concentration, GI50
Experimental: as §1, §5

calf thymus DNA (CT-DNA) = experiment: CT-DNA binding by UV-vis absorption titration; details: for Bathochromism Shift (nm) / Hypochromism, (%): CT-DNA, UV-vis absorption titration; for Gibbs Free Energy: interaction with CT-DNA
Experimental: Both theoretical and experimental DNA binding of the synthesised organotin(IV) compounds with DNA were investigated. The interaction of organotin(IV) compounds with CT-DNA was elucidated via UV-visible absorption spectroscopy. […] The absorption spectra of diphenyltin(IV) compounds at a constant concentration (50 μM) in the absence and the presence of different concentrations of CT-DNA are shown in Figure 8. Upon increasing concentrations of CT-DNA, hypochromism and bathochromism occurred at around 350–377 nm indicating strong π–π stacking interactions between the aromatic chromophore of the organotin(IV) compounds and the nitrogeneous pair of the DNA strand [11, 70]. The same hypochromism and bathochromism shifts were also observed in other transitions. In order to compare the binding strength of the organotin(IV) compounds to CT-DNA, the intrinsic binding constants (Kb) were quantitatively determined and are presented in Table 3.
DNA binding experiments were carried out at 25°C. DNA concentration per nucleotide was determined using the molar absorption coefficient (6600 M^−1 cm^−1) at 260 nm. […] Absorption titration experiments were performed maintaining the concentration of the organotin(IV) compounds solutions at 50 µM and gradually increasing the concentration of CT-DNA. The organotin(IV) compounds were dissolved in DMSO and diluted with Tris-HCI buffer at room temperature (25 °C). The solutions were scanned over 230–600 nm. Absorbance values were recorded 10 min after the addition of DNA solution. The binding constant, Kb was determined using the equation: [DNA]/(εa−εf)=[DNA]/(εb−εf)+1/Kb(εb−εf) where [DNA] is the concentration of DNA in base pairs, εa corresponds to the apparent molar extinction coefficient Aabs/[M], εf corresponds to the extinction coefficient for the free organotin [M] and εb corresponds to the extinction coefficient for the fully bound organotin compound.

[9] = system: Du145 (prostate) cancer cells; experiment: MTT growth inhibition assay, Du145; format: cell-based; details: 72 h, ± standard error, read-out: Growth Inhibition Concentration, GI50
Experimental: as §1, §2, §3, §4

[10] = system: MCF-7 (breast) cancer cells; experiment: MTT growth inhibition assay, MCF-7; format: cell-based; details: MCF-7 cells, 72 h, ± standard error, read-out: Growth Inhibition Concentration, GI50
Experimental: as §1, §2, §3, §4

[11] = system: BE2-C (neuroblastoma) cancer cells; experiment: MTT growth inhibition assay, BE2-C; format: cell-based; details: 72 h, ± standard error, read-out: Growth Inhibition Concentration, GI50
Experimental: as §1, §2, §3, §4

COc1cccc2c1[O][Sn]([CH3])([CH3])[S]C(SCc1ccccc1C)=NN=C2 [Me2Sn(S2MoVa), Dimethyltin(IV) [S-2-Methybenzyl-β-N-(2-hydroxy-3-methoxybenzylmethylene) dithiocarbazate]]
GI50 (H460 (lung) cancer cells): 3.3 ± 0.13 µM | GI50 [1]: 3.6 ± 0.23 µM | GI50 (A431 (skin) cancer cells): 3 ± 0.03 µM | GI50 [2]: 2.5 ± 0.78 µM | GI50 [3]: 3 ± 0.09 µM | GI50 [4]: 3.9 ± 0.07 µM | GI50 [5]: 2.5 ± 0.3 µM | GI50 [6]: 2.7 ± 0.1 µM | GI50 [7]: 3.1 ± 0.06 µM | GI50 [8]: 2.4 ± 0.77 µM | Bathochromism Shift (nm) (calf thymus DNA (CT-DNA)): 10 nm | Hypochromism, (%) (calf thymus DNA (CT-DNA)): 37.97% | Gibbs Free Energy (calf thymus DNA (CT-DNA)): -7.55 kcal/mol | GI50 [9]: 3.9 ± 0.03 µM | GI50 [10]: 3.1 ± 0.12 µM | GI50 [11]: 2.9 ± 0.03 µM

COc1cccc2c1[O][Sn]([CH3])([CH3])[S]C(SCc1ccc(C)cc1)=NN=C2 [Me2Sn(S4MoVa), Dimethyltin(IV) [S-4-Methybenzyl-β-N-(2-hydroxy-3-methoxybenzylmethylene) dithiocarbazate]]
GI50 (H460 (lung) cancer cells): 4.7 ± 0.46 µM | GI50 [1]: 3.3 ± 0.18 µM | GI50 (A431 (skin) cancer cells): 4.2 ± 0.34 µM | GI50 [2]: > 5 µM | GI50 [3]: 3.3 ± 0.15 µM | GI50 [4]: 8.9 ± 1.3 µM | GI50 [5]: 3.1 ± 0.55 µM | GI50 [6]: 6.9 ± 3.5 µM | GI50 [7]: 3.1 ± 0.63 µM | GI50 [8]: > 5 µM | Bathochromism Shift (nm) (calf thymus DNA (CT-DNA)): 7 nm | Hypochromism, (%) (calf thymus DNA (CT-DNA)): 43.72% | Gibbs Free Energy (calf thymus DNA (CT-DNA)): -7.67 kcal/mol | GI50 [9]: 4.2 ± 0.1 µM | GI50 [10]: 3.3 ± 0.32 µM | GI50 [11]: 3.3 ± 0.23 µM

COc1cccc2c1[O][Sn]([CH3])([CH3])[S]C(SCc1ccccc1)=NN=C2 [Me2Sn(SBoVa), Dimethyltin(IV) [S-Benzyl-β-N-(2-hydroxy-3-methoxybenzylmethylene) dithiocarbazate]]
GI50 (H460 (lung) cancer cells): 3.8 ± 0.1 µM | GI50 [1]: 4.5 ± 0.19 µM | GI50 (A431 (skin) cancer cells): 3.2 ± 0.03 µM | GI50 [2]: 3.4 ± 0.3 µM | GI50 [3]: 2.8 ± 0.41 µM | GI50 [4]: 5 ± 0.09 µM | GI50 [5]: 2.1 ± 0.12 µM | GI50 [6]: 2.8 ± 0.15 µM | GI50 [7]: 3.2 ± 0.03 µM | GI50 [8]: 2.4 ± 0.33 µM | Bathochromism Shift (nm) (calf thymus DNA (CT-DNA)): 1 nm | Hypochromism, (%) (calf thymus DNA (CT-DNA)): 53.26% | Gibbs Free Energy (calf thymus DNA (CT-DNA)): -8.99 kcal/mol | GI50 [9]: 3.2 ± 0.13 µM | GI50 [10]: 2.5 ± 0.21 µM | GI50 [11]: 2.7 ± 0.13 µM
